From patent US20030212034A1, “Method of treatment of obesity and paralyzed muscle and ergogenic aids” (priority 2002, published 2003)

Assays:
Assay type in all cases: in vivo, rat
[1] = test system: acetyl-CoA carboxylase (ACC); assay: ACC activity and citrate dependence in denervated and contralateral muscles after acute AICAR injection; details: for ACC activity vs saline, several citrate concentrations / ACC activity at 0.2 mM citrate vs saline-treated contralateral innervated soleus: acute AICAR 1 mg/g; for ACC activity vs saline, several citrate concentrations: FIG. 10; for ACC activity at 0.2 mM citrate vs saline-treated contralateral innervated soleus: FIG. 9
Source text: Rats were anesthetized with ether and the sciatic nerve of the right hindlimb was severed. The left hindlimb was sham operated to serve as a control. Both skin wounds were closed with a metal clips. The rats used for the acute study were also implanted with a jugular catheter which was exteriorized on the back of the neck at the time of denervation for rapid administration of anesthesia.
Rats were denervated between 8:30 a.m. and 10:30 a.m. and were then given 25 g of food. Rats were handled twice during the day to accustom them to being handled. The rats were given a single subcutaneous injection 24 hours. after surgery of either AICAR (1 mg/g body weight) in sterile 0.9% NaCl or with just 0.9% NaCl, and were subsequently anesthetized intravenously. Soleus and gastrocnemius muscles from both sham and denervated sides were extracted and quick frozen in liquid nitrogen for analysis. AMPK activity and acetyl-Co A carboxylase (ACC) activity were determined as previously described. Winder W W & Hardie D G, Am J. Physiol 270 (Endocrinol Metab 33): E299-E304, 1996. Because this analysis is done on homogenates prepared by ammonium sulfate precipitation, only those effects on AMPK activity modified by phosphorylation are measured. […] Because ACC is a target for phosphorylation by AMPK, and because ACC activity has been reported to decrease in response to phosphorylation by AMPK, ACC activity is measured to give an indication of the in vivo actions of AMPK.
Referring to FIG. 10, Citrate dependence of acetyl-CoA carboxylase (ACC) in denervated and contralateral innervated gastrocnemius muscles from rats treated with AICAR (1 mg AICAR in 0.9% NaCl/1 g body weight) or saline (0.9% NaCl) is illustrated. SE values were determined but are not shown (n=5).Curves were fitted to data by using the Hill equation and Grafit software (Sigma Chemical, St. Louis, Mo.). FIG. 10 graphs the specific activity of ACC in saline-treated and AICAR-treated gastrocnemius muscles at several different citrate concentrations.

[2] = test system: succinate dehydrogenase; assay: Muscle succinate dehydrogenase activity after chronic AICAR injection; details: AICAR 1 mg/g daily 4 wk, FIG. 4
Description: (§1) To determine the effect of chronic injection of AICAR on muscle enyzme activities or expression and on muscle GLUT4, rats were injected subcutaneously (between 8 and 10 a.m.) with AICAR (1 mg/g) or saline vehicle daily for 28±1 days in succession. Beginning with the first injection, controls were pair fed with AICAR-injected rats. Rats were anesthetized by intraperitoneal injection of pentobarbital sodium 22-25 hours after the last AICAR injection and the white and red regions of the quadriceps and the soleus muscles were removed and frozen as described above. Muscles were kept frozen at −70° C. until analyzed. Liver, heart, kidney, and fat pads were weighed.
For enzyme activity measurements, 10% homogenates were made from the respective muscles in 175 mM KCl, 10 mM GSH, 2 mM EDTA, pH 7.4. This homogenate was frozen and thawed 3 times and mixed thoroughly prior to enzymatic measurements. For succinate dehydrogenase and lactate dehydrogenase, an aliquot of the homogenate was centrifuged at 700×g for 10 min at 4° C. The remainder of the assays were performed on aliquots and dilutions of the mixed whole homogenate. Assays were performed by the following methods: citrate synthase, succinate dehydrogenase, the mitochondrial fraction of malate dehydrogenase, hexokinase, lactate dehydrogenase, carnitine palmitoyl transferase and hydroxyacyl-CoA dehydrogenase. […]

[3] = test system: GLUT4; assay: Muscle GLUT4 by western blot after chronic AICAR injection; details: AICAR 1 mg/g 4 weeks, FIG. 5
Description: as §1
For the chronic effects of AICAR injection muscles were analyzed for glycogen GLUT-4, hexokinase, lactate dehydrogenase, and several mitochondrial enzymes. Hassid, W. Z., & S. Abraham Methods Enzymol. 3:35-36, 1957. GLUT4 was quantitated by western blotting as described previously using GLUT4 polyclonal antibody RaIRGT, Biogenesis, Sandown, N.H.) and horseradish peroxidase-conjugated donkey anti-rabbit IgG (Amersham Life Science, Arlington Heights, Ill.). Holmes, B. F., et al. J. Appl Physiol 87:1990-1995, 1999. δ-Aminolevulinic acid synthase was determined using western blotting techniques as described previously. Li, B., et al. J. Biol. Chem. 274:17534-17540, 1999. For determination of cytochrome c, muscles were homogenized in 10 mM n-2-hydroxyethylpiperazine-N′-2-ethanesulfonic acid (HEPES), 1 mM EDTA, and 250 mM sucrose (HES buffer). […] Cytochrome c was detected by incubating the nitrocellulose blots with a rabbit polyclonal antibody against rabbit heart cytochrome c (Alpha Diagnostics International, San Antonio) followed by horseradish peroxidase-conjugated anti-rabbit immunoglobulin G. Antibody bound GLUT4, δ-Aminolevulinic acid synthase, and cytochrome c were visualized using enhanced chemiluminescence. Protein bands were quantified by densitometry.

[4] = test system: hexokinase; assay: Muscle hexokinase activity after chronic AICAR injection; details: AICAR 1 mg/g 4 weeks, FIG. 5
Description: as §1
For enzyme activity measurements, 10% homogenates were made from the respective muscles in 175 mM KCl, 10 mM GSH, 2 mM EDTA, pH 7.4. This homogenate was frozen and thawed 3 times and mixed thoroughly prior to enzymatic measurements. For succinate dehydrogenase and lactate dehydrogenase, an aliquot of the homogenate was centrifuged at 700×g for 10 min at 4° C. The remainder of the assays were performed on aliquots and dilutions of the mixed whole homogenate. Assays were performed by the following methods: citrate synthase, succinate dehydrogenase, the mitochondrial fraction of malate dehydrogenase, hexokinase, lactate dehydrogenase, carnitine palmitoyl transferase and hydroxyacyl-CoA dehydrogenase. Srere, P. A. Methods in Enzymology 13:3-6, 1969; King, T. E. Methods Enzymol 10:322-335, 1967; Shonk, C. E. & G. E. Boxer, Cancer Res. 24:709-721, 1964; Uyeda, K., & E. Racker, J. Biol Chem 240:4682-4688, 1965; Pesce, A., et al. J. Biol. Chem. 239:1753-1761, 1964; Baldwin, K. M., et al. Am. J. Physiol 222:373-378, 1972; Mole, P. A., et al. J. Clin. Invest. 50:2323-2330, 1971; Kobayashi, A. et al. J. Biochem. 119:775-782, 1996.

NC(=O)c1ncn([C@@H]2O[C@H](CO)[C@@H](O)[C@H]2O)c1N [AICAR, 5-aminoimidazole-4-carboxamide-1-β-D-ribofuranoside]
ACC activity vs saline, several citrate concentrations ([1]; contralateral innervated gastrocnemius): significantly decrease ACC activity
ACC activity at 0.2 mM citrate vs saline-treated contralateral innervated soleus ([1]; contralateral soleus): significantly (P<0.01) decreased
ACC citrate activation constant (Ka) ([1]; denervated gastrocnemius, acute AICAR 1 mg/g s.c., saline-treated denervated 3.6±0.3): 13.2±1.1
ACC maximal velocity (Vmax) as a function of citrate concentration ([1]; denervated gastrocnemius, acute AICAR 1 mg/g s.c., saline-treated denervated 36.7±5): 24.7±1.9
ACC activity vs saline, several citrate concentrations ([1]; denervated gastrocnemius): significantly decrease ACC activity
ACC activity at 0.2 mM citrate vs saline-treated contralateral innervated soleus ([1]; denervated soleus): significantly (P<0.01) decreased
succinate dehydrogenase activity vs controls ([2]; soleus): all increased
succinate dehydrogenase activity vs controls ([2]; white quadriceps): all increased
GLUT4 vs saline-injected controls ([3]; red region of the quadriceps): significantly increased
GLUT4 vs saline-injected controls ([3]; soleus, p=0.12): did not reach statistical significance
GLUT4 vs saline-injected controls ([3]; white region of the quadriceps): significantly increased
hexokinase activity vs saline-injected controls ([4]; red region of the quadriceps): significantly increased
hexokinase activity vs saline-injected controls ([4]; soleus): increase in hexokinase activity in soleus was statistically significant
hexokinase activity vs saline-injected controls ([4]; white region of the quadriceps): significantly increased
